# Where a SMILES comes first, the peptide text is derived from it.
# Assays:
# P. aeruginosa M2 = assay: P. aeruginosa infection in neutropenic mouse model; format: in vivo; details: neutropenic CD-1 mice
# Protocol: Invention peptides were assayed for their ability to protect against P. aeruginosa infection in a neutropenic mouse mode. Female CD-1 mice, made neutropenic by three injections of cyclophosphamide (see Gough et al., (1996) Infect. Immun. 64:4922-4927) were injected intraperitoneally with a 100% lethal dose of P. aeruginosa M2 (approximately 200 organisms). Thirty minutes later, mice were injected intraperitoneally with invention peptides (200 μg/100 μl) Survival was assessed 24 to 72 hours later.
# [1] = Dansyl polymyxin B displacement assay (binding affinity for LPS); parameters: species or system Escherichia coli
# Protocol: To determine whether invention peptides are able to interact with the LPS of Gram-negative bacterial outer membrane, the binding affinity of peptide for LPS was determined using a dansyl polymyxin B displacement assay (Moore et al. (1986) Antimicrobial Agents Chemother. 29:496-500). The assay uses dansyl polymyxin, a cationic probe that is highly fluorescent only when bound and LPS isolated from E. coli. UB1005. […] Maximal displacement of LPS was expressed as a percentage where 100% displacement of dansyl polymyxin B was taken as that observed with polymyxin B.
# [2] = system: intact cells of E. coli UB1005; assay: NPN uptake assay, outer membrane permeabilization; format: cell-based, Escherichia coli; details: peptide concentration leading to 50% of maximal increase in NPN uptake
# Protocol: The outer membrane permeabilization activity of invention peptides was determined by the 1-N-phenylnapthylamine (NPN) uptake assay of Loh et al. ((1984) Antimicor. Agents Chemother. 26:546-551), using intact cells of E. coli UB1005.
# (§1) The cytoplasmic membrane depolarization activity of the peptides was determined (Wu and Hancock (1999) J. Biol. Chem. 274:29-35) using the membrane potential sensitive dye 3,3-dipropylthiacarbocyanine diSC35 (28) and E. coli DC2. Bacterial cells in mid-log phase were centrifuged, washed in 5 mM HEPES, pH 7.8, and resuspended in the same buffer to an OD600 of 0.05. A stock solution of diSC35 was added to a final concentration of 0.4 μM and quenching was allowed to occur at room temperature for 20-30 min. Then KCl was added to the cell suspension to a final concentration of 100 mM to equilibrate the cytoplasmic and external K^+ concentrations. A 2-mL cell suspension was placed in a 1 cm cuvette and the desired concentration of tested peptide was added. Changes in fluorescence due to the disruption of the membrane potential in the cytoplasmic membrane were continuously recorded using a Perkin-Elmer model 650-10S spectrofluorimeter at an excitation wavelength of 622 nm and an emission wavelength of 670 nm. The concentration of peptide leading to a 50% of maximal increase in NPN uptake was recorded as the P50.
# Therefore, an increase in fluorescence in the presence of a peptide indicates the ability of peptide to permeabilize the bacterial outer membrane.
# E. coli DC2 = assay: Cytoplasmic membrane depolarization, diSC35 assay; format: cell-based, Escherichia coli; details: 0.25 μg/ml peptide
# Protocol: The arrowhead indicates the time at which 0.25 μg/ml peptide was added. PV5: SEQ ID NO:11; PV7: SEQ ID NO:4; and PV8: SEQ ID NO:3.
# as §1
compound,measurement,setting,value
"CC(C)[C@@H]1NC(=O)[C@H](CCCNC(=N)N)NC(=O)[C@H](Cc2ccccc2)NC(=O)[C@@H](NC(=O)[C@H](Cc2c[nH]c3ccccc23)NC(=O)[C@H](CCCNC(=N)N)NC(=O)[C@@H](N)CCCNC(=N)N)CSSC[C@@H](C(=O)N[C@@H](CCCNC(=N)N)C(N)=O)NC(=O)[C@H](CCCCN)NC(=O)[C@H](CCCNC(=N)N)NC(=O)[C@H](Cc2ccc(O)cc2)NC(=O)[C@@H]2CSSC[C@H](NC1=O)C(=O)N[C@@H](Cc1ccc(O)cc1)C(=O)N[C@@H](CCCNC(=N)N)C(=O)NCC(=O)N[C@@H](Cc1ccccc1)C(=O)N2 [Polyphemusin I] (HELM PEPTIDE1{R.R.W.C.F.R.V.C.Y.R.G.F.C.Y.R.K.C.R.[am]}$PEPTIDE1,PEPTIDE1,4:R3-17:R3|PEPTIDE1,PEPTIDE1,8:R3-13:R3$$$V2.0; N-terminus and C-terminus assumed)",Mean Time to Death,P. aeruginosa M2; 200 μg peptide intraperitoneally 30 min after infection,52 h
same,"Survival (%), P. aeruginosa infection","P. aeruginosa M2; 200 μg peptide intraperitoneally, groups of 5 mice, assessed 24 to 72 hours",20%
same,Imax,"[1]; maximal displacement, 100% = that observed with polymyxin B",85%
same,IC50,"[1]; peptide concentration reducing bound dansyl polymyxin B (10 μM) by 50% of maximal displacement, read-out: I50",4.8 µM
same,P50,[2],2.8 µg/mL
same,time to dissipation of the cytoplasmic membrane potential,E. coli DC2,≤ 5 min

# Source: US6337317B1, “Antimicrobial peptides and methods of use thereof” (priority 2000, dated 2002)
